Test results as given in ChEMBL document CHEMBL1148120, “New cytotoxic 6,7-cis and 6,7-trans configured guaianolides from Warionia saharae” (J Nat Prod, 2002).
Values after ≈ are worked out from the molar mass of the structure shown.

test system: KB; experiment: Cytotoxicity against human KB cells; assay type: functional, cell-based

Structure (SMILES)	IC50 [µg/mL]
C=C1C(=O)O[C@H]2[C@H]1CC=C(C)[C@]1(O)C[C@H]3O[C@@]3(C)[C@H]21	1.7 (≈ 6.48 µM)
C=C1C(=O)O[C@H]2[C@H]1CCC(=C)[C@]1(O)C[C@H]3O[C@@]3(C)[C@H]21	2 (≈ 7.62 µM)
C=C1C(=O)O[C@@H]2[C@H]1CCC(C)=C1[C@H]3O[C@](C)([C@H]3OC(=O)C(C)CC)[C@@H]12 (stereo partly drawn) [3BETA-O-(2-METHYLBUTYRYL)MOROCCOLIDE A]	1 (≈ 2.89 µM)
C=C1C(=O)O[C@@H]2[C@H]1CCC(C)=C1[C@H]3O[C@](C)([C@H]3O)[C@@H]12 [MOROCCOLIDE A]	4.5 (≈ 17.2 µM)
C=C1C(=O)O[C@H]2[C@@H]3[C@@](O)(C(C)=CC[C@@H]12)[C@@H]1C[C@@]3(C)O1 [SAHARANOLIDE A]	3.3 (≈ 12.6 µM)
C=C1C(=O)O[C@H]2[C@@H]3[C@@](O)(C(=C)CC[C@@H]12)[C@@H]1C[C@@]3(C)O1 [SAHARANOLIDE B]	5.5 (≈ 21 µM)
